One compound from US20230357248A1, “PYRROLOPYRIMIDINE COMPOUND AS BTK INHIBITOR AND USE THEREOF” (MEDSHINE DISCOVERY INC., priority 2019, published 2023) can be followed below.

Molecules are shown by their SMILES. pIC50: −log10 of the molar value. Marks after values point to notes of the source that are not given here.

The target of one data set is BTK^C481S (Homo sapiens (Human), UniProt Q06187, C481S). Put plainly: BTK enzyme activity assay. The note with it: 200 μM ATP; 33P-ATP, filter-binding method. The format is biochemical. As to the method:
The specific assay process of BTK enzyme activity assay is as follows: Buffer: 20 mM 2-[4-(2-hydroxyethyl)-1-piperazinyl]ethanesulfonic acid (Hepes) (pH 7.5), 10 mM magnesium chloride, 1 mM ethylenebis(oxyethylenenitrilo)tetraacetic acid (EGTA), 0.02% polyoxyethylene dodecyl ether (Brij35), 0.02 mg/mL BSA, 0.1 mM sodium vanadate (Na3VO4), 2 mM dithiothreitol (DTT), 1% DMSO, 200 μM adenosine triphosphate (ATP). • 1. The substrate was prepared in freshly prepared reaction buffer; • 2. The required cofactor was added to the above-mentioned substrate solution; • 3. The kinase BTK^C481S was added to the above-mentioned substrate solution and mixed well; • 4. The compound dissolved in DMSO was added to the kinase reaction mixture by Echo550 (Acoustic technology; nanoliter range), and the mixture was incubated at room temperature for 20 minutes; • 5. ^33P-ATP (specific radioactivity of 10 μCi/μL) was added to the reaction mixture to initiate the reaction; • 6. The mixture was incubated at room temperature for 2 hours; • 7. The radioactivity was detected by filter-binding method; • 8. Kinase activity data represented the percentage of remaining kinase activity in the assay sample compared to the vehicle (dimethyl sulfoxide) reaction.

Data set [1] in a line: Plasma protein binding (PPB) assay, R. Type of data set: in vitro ADME. The note with it: rat, dialysis 4 hr 37° C. As to the method:
Assay procedure: 995 μL of blank plasma of various genera were weighed, and 5 μL of assay compound working solution (400 μM) or warfarin working solution (400 μM) was added so that the final concentrations of the assay compound and warfarin in plasma sample were each 2 μM. The samples were mixed thoroughly. The final concentration of DMSO (the organic phase) was 0.5%. 50 μL of the plasma samples of the assay compound and warfarin were pipetted to a sample receiving plate (in triplicate), and the corresponding volume of corresponding blank plasma or buffer was added immediately, so that the final volume in each sample well was 100 μL, wherein the volume ratio of plasma:dialysis buffer was 1:1. 500 μL of stop solution was then added to these samples. These samples were used as T0 samples for determination of recovery and stability. […] All samples were subjected to protein precipitation, and then analyzed by LC/MS/MS. Bound rate and recovery rate of protein were calculated using the following formulae: % Unbound=100*F/T, % Bound=100−% Unbound, % Recovery=100*(F+T)/T0 (wherein F is the peak area ratio of the compound in the dialysate after 4 h of dialysis; T is the peak area ratio of the compound in the plasma after 4 h of dialysis; To is the peak area ratio of the compound in the plasma sample at time zero).

A further data set concerns rat plasma protein. The data set is described as follows: In vivo plasma protein binding (PPB) assay in rat. Type of data set: in vitro ADME. The note with it: rat in vivo plasma samples; dialysis 4 h 37° C.; average of 3 or 4 results. The method, then:
1.1 Preparation of Dialysis Membrane and Matrix
On the day of the assay, frozen plasma was thawed in running cold tap water. After the plasma was completely thawed, the plasma was centrifuged at 3220×g for 5 min, and suspensions and sediments in the plasma were removed.
A double-layer dialysis membrane was soaked in ultrapure water for about 1 h, and then taken out. The double-layer dialysis membrane was divided into two parts, and then soaked in ethanol-water (20:80, v:v) solution for 20 min or placed at 2-8° C. with a validity period of 1 month. Before the start of the assay, the dialysis membrane was rinsed twice with ultrapure water and soaked in ultrapure water for another 20 min for use.
1.2 The Mixing Steps of Compound Sample and the Dilution Process of Control Compound
1.2.1 The Mixing Steps of Compound Sample
An appropriate amount of original samples were transferred to a collection tube of mixed samples, and the samples in the collection tube of mixed samples were mixed thoroughly.
1.2.2 The Dilution Process of the Control Compound
The control compound was dissolved in dimethyl sulfoxide to obtain a 10 mM stock solution. A working solution of 400 μM was obtained by dilution with dimethyl sulfoxide. Preparation process of plasma sample: 995 μL of blank plasma was weighed, and 5 μL of warfarin working solution was added. […]

Sequence of BTK^C481S (Q06187 whole entry C481S): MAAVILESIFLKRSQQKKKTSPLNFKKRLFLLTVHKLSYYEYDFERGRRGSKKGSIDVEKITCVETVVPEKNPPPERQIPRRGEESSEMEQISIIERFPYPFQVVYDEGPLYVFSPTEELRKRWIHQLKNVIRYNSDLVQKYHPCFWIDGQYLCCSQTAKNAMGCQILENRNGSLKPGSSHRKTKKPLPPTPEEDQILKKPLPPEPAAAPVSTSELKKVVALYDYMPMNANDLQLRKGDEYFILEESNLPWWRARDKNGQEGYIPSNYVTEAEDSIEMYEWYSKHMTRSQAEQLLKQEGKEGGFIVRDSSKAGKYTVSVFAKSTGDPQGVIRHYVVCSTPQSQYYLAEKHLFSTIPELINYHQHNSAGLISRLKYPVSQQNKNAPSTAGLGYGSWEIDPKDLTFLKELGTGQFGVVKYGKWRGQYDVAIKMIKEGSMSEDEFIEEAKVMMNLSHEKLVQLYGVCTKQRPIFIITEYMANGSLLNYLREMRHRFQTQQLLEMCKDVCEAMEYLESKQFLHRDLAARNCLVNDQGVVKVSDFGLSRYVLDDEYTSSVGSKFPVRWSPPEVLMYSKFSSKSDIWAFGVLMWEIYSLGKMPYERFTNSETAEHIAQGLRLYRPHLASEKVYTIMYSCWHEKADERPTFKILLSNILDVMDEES

On to `CO[C@@H]1C[C@@H](CO)OC[C@@H]1Nc1ncnc2[nH]cc(C(=O)c3ccc(Oc4ccccc4)cc3Cl)c12` [Compound 4], for which the pIC50 at BTK^C481S is 8.14. This compound yielded a fraction unbound at 4 h, 2 μM in data set [1] of 0.002. In addition, the “Unbound PPB” value in the data set with rat plasma protein worked out at 0.2% ^a.

In general, pIC50 refers to −log10 of the IC50, conventionally taken in molar units. High values mean a low IC50, low ones a high IC50. As a reminder, the fraction unbound is free concentration divided by total concentration. The low end stands for little free substance, the high end for much free substance.
